Results taken from the supplement of paper PMC10307832.

Assays:
Experiment in all cases: relative viability (nuclei count vs DMSO), 5 days (fraction); higher = more cells survive
[1] = compound: C[C@@H](N)c1ccc(C(=O)Nc2ccnc3[nH]ccc23)cc1 + C[C@@H](Oc1cc(-c2cnn(C3CCNCC3)c2)cnc1N)c1c(Cl)ccc(F)c1Cl [Crizotinib] (partner 1 µM)
In short: (§1)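 Cells from lung cancer lines were seeded into 1536-well plates and, one day later, dosed by pin tool. Treatments were either a single drug or a fixed dose of an anchor drug with five library-drug doses (not always all listed) in √10 steps. After 5 days, nuclei were stained in a one-step fixation (final 0.05% Triton X-100, 1% formaldehyde, 1 ug/ml Hoechst) and counted on 4× images, and relative viability is the treated-to-vehicle nuclei ratio, as the median of duplicate plates.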

Tanzisertib + Luminespib = compound: O[C@H]1CC[C@H](Nc2ncc3nc(Nc4c(F)cc(F)cc4F)n([C@H]4CCOC4)c3n2)CC1 [Tanzisertib] + CCNC(=O)c1noc(-c2cc(C(C)C)c(O)cc2O)c1-c1ccc(CN2CCOCC2)cc1 [Luminespib] (partner 0.01 µM)
In short: as §1

Tanzisertib + Crizotinib = compound: O[C@H]1CC[C@H](Nc2ncc3nc(Nc4c(F)cc(F)cc4F)n([C@H]4CCOC4)c3n2)CC1 [Tanzisertib] + C[C@@H](Oc1cc(-c2cnn(C3CCNCC3)c2)cnc1N)c1c(Cl)ccc(F)c1Cl [Crizotinib] (partner 1 µM)
In short: as §1

Tanzisertib + Pemetrexed = compound: O[C@H]1CC[C@H](Nc2ncc3nc(Nc4c(F)cc(F)cc4F)n([C@H]4CCOC4)c3n2)CC1 [Tanzisertib] + Nc1nc2[nH]cc(CCc3ccc(C(=O)N[C@@H](CCC(=O)O)C(=O)O)cc3)c2c(=O)[nH]1 [Pemetrexed] (partner 0.2 µM)
In short: as §1

Row | Cell Line | relative viability ([1]; first compound 0.04 µM) | relative viability ([1]; first compound 0.1265 µM) | relative viability ([1]; first compound 0.4 µM) | relative viability ([1]; first compound 1.265 µM) | relative viability ([1]; first compound 4 µM) | relative viability (Tanzisertib + Luminespib; first compound 0.08 µM) | relative viability (Tanzisertib + Luminespib; first compound 0.253 µM) | relative viability (Tanzisertib + Luminespib; first compound 0.8 µM) | relative viability (Tanzisertib + Luminespib; first compound 2.53 µM) | relative viability (Tanzisertib + Luminespib; first compound 8 µM) | relative viability (Tanzisertib + Crizotinib; first compound 0.08 µM) | relative viability (Tanzisertib + Crizotinib; first compound 0.253 µM) | relative viability (Tanzisertib + Crizotinib; first compound 0.8 µM) | relative viability (Tanzisertib + Crizotinib; first compound 2.53 µM) | relative viability (Tanzisertib + Crizotinib; first compound 8 µM) | relative viability (Tanzisertib + Pemetrexed; first compound 0.08 µM) | relative viability (Tanzisertib + Pemetrexed; first compound 0.253 µM) | relative viability (Tanzisertib + Pemetrexed; first compound 0.8 µM) | relative viability (Tanzisertib + Pemetrexed; first compound 2.53 µM) | relative viability (Tanzisertib + Pemetrexed; first compound 8 µM)
1 | NCI-H2405 | 0.689 | 0.904 | 0.868 | 0.68 | 0.387 | 0.716 | 0.713 | 0.577 | 0.676 | 0.609 | 0.935 | 0.825 | 0.828 | 0.916 | 0.789 | 1.1 | 1.1 | 1 | 1.24 | 0.955
2 | NCI-H3122 | 0.286 | 0.295 | 0.264 | 0.346 | 0.303 | 0.134 | 0.0952 | 0.125 | 0.0854 | 0.103 | 0.302 | 0.306 | 0.288 | 0.292 | 0.293 | 0.2 | 0.192 | 0.193 | 0.19 | 0.188
3 | PC-3 [JPC-3] | 0.969 | 0.931 | 1.01 | 1.1 | 0.917 | 0.621 | 0.758 | 0.693 | 0.662 | 0.6 | 0.969 | 1.05 | 0.989 | 0.971 | 0.994 | 1.16 | 1.3 | 1.23 | 1.04 | 0.466
4 | PC-14 | 0.846 | 0.871 | 0.921 | 0.8 | 0.657 | 0.181 | 0.109 | 0.22 | 0.217 | 0.17 | 0.979 | 0.878 | 0.994 | 0.883 | 0.574 | 0.134 | 0.131 | 0.129 | 0.0897 | 0.104
5 | RERF-LC-KJ | 0.808 | 0.893 | 0.788 | 0.858 | 0.684 | 1.29 | 1.17 | 1.29 | 1.16 | 1.22 | 0.865 | 0.804 | 0.859 | 0.856 | 0.798 | 0.429 | 0.468 | 0.486 | 0.423 | 0.442
6 | SK-LU-1 | 0.926 | 0.964 | 0.779 | 0.757 | 0.5 | 0.229 | 0.231 | 0.189 | 0.181 | 0.18 | 0.994 | 0.776 | 1.03 | 1.05 | 0.834 | 1.07 | 0.949 | 1.02 | 0.969 | 0.979
7 | SK-MES-1 | 1.01 | 0.973 | 0.94 | 0.798 | 0.757 | 0.718 | 0.692 | 0.698 | 0.75 | 0.499 | 0.986 | 0.97 | 0.961 | 0.965 | 0.916 | 0.971 | 0.887 | 0.962 | 0.982 | 0.737
8 | SW 1573 | 0.792 | 0.816 | 0.777 | 0.65 | 0.765 | 0.294 | 0.24 | 0.18 | 0.187 | 0.339 | 0.769 | 0.798 | 0.769 | 0.872 | 0.611 | 0.809 | 0.84 | 0.805 | 0.839 | 0.683
